From paper PMC13236579, “Synthesis of aryl-fused bicyclo[3.1.1]heptanes and validation as naphthyl bioisosteres” (Nature Chemistry, 2026)
Several values for one entry are separate records, joined by “and”; a condition that tells them apart may be missing. Equal values may be shown once. Read-outs that look alike come from different tables or passages of the source.

Columns and labels:
[1] = Kinetic solubility assay in phosphate buffer; assay type: physicochemical; conditions: aqueous buffer, kinetic from dmso stock, 50 mM PB (pH 7.4), room temperature
Description: A 50 mM phosphate buffer (pH 7.4) was prepared by mixing 50 mM Na₂HPO₄ (3.549 g in 500 mL H₂O, pH ≈ 9.4) and 50 mM NaH ₂PO₄ (3.000 g in 500 mL H₂O, pH ≈ 4.5). To obtain the working buffer, 15 mL of Na₂HPO₄ solution was transferred into a 50 mL tube and adjusted to pH 7.4 ± 0.05 with 50 mM NaH₂PO₄. For solubility determination, 10 µL of compound stock solution was added to each well of a 96 -well plate, followed by 490 µL of buffer. Samples were vortexed for 2 min, shaken at 70 x g for 24 h at room temperature, and then centrifuged at 25 °C for 10 min (1800 x g). Supernatants were filtered through MultiScreen® Solvinert plates (Millipore/Merck) by centrifugation (≥ 5 min) and collected into a fresh 96 -well plate. Filtrate concentrations were quantified by LC-UV using an ACQUITY UPLC BEH C18 (1.7 µm, 50 mm) column with Mobile Phase A (0.1% TFA, 5 mM NH ₄OAc in H₂O/ACN 95:5 v/v) and Mobile Phase B (0.1% TFA, 5 mM NH ₄OAc in H₂O/ACN 5:95 v/v). […]
Compound ID Batch Media Kinetic Solubility Kinetic Solubility

[2] = Metabolic stability in mouse liver microsomes (MLM) with or without ANF; assay type: in vitro ADME; conditions: for half-life at 1 μM / microsomal CLint at 1 μM: CD-1, mouse, liver microsomes, 1 μM compound; for microsomal CLint at 1 μM: read-out: CLint(mic)
Description: Finally, we subjected the most promising derivatives to metabolic stability studies in mouse liver microsomes (MLMs), a validated model for understanding phase I metabolism of drugs (Table 1). To investigate whether the analogues would be susceptible to CYPs metabolism, we repeated these tests in the presence of 3 μM α-naphthoflavone (ANF). ANF is a well-known inhibitor of CYP1A enzymes, which is responsible for the CYP oxidative metabolism of naphthalene ring in ezutromid. […] These findings support the strategy that BCHep substitution mitigates the metabolic liabilities associated with ezutromid, by both preserving metabolic stability and avoiding CYP1A-mediated metabolism. [table] page 148: Fig.S178. […] Data have been obtained by RT-qPCR, and analysed using the 2-∆∆Ct method. Values obtained have been normalized to control (DMSO 1%), and presented as Mean + SEM (n=4). Statistical analysis was performed using the Ordinary One-way ANOVA followed by Dunnett’s multiple comparisons test against Vehicle Control: **: p < 0.005; ****: p < 0.0001 (grey). Metabolic stability Metabolic stability of compounds was assessed in Mouse Liver Microsomes (MLM) by WuxiAppTech (Shangai, China). Briefly, ACN solutions of test compounds ( 50a-c, i.a concentration 1μM) were dispensed in duplicate in a 96-well plate using an Apricot automation workstation. A solution of MLM (CD-1 Mouse, RILD, Cat. number LM-XS-02M) in PBS, with or without ANF, was added to each compound and plates were incubated at 37°C for 10 minutes. Reactions were then initiated by adding NADPH (i.a. 1mM, 0.5mM MgCl2) an d […] performed by adding stop solution before activating the reaction). NADPH -independent metabolism was assessed for each condition by replacing NADPH solution with PBS b uffer. Phenacetine, diclofenac and propafenone were used as controls. After proper incubation time, reaction was stopped by addition of ice -cold ACN and the plates were sealed, shaken and centrifuged at 1800 x g and 4°C for 20 minutes. The supernatant was then subjected to LC/MS-MS analysis for residual drug quantitation using 250 nM tolbutamide and 250 nM labetalol as internal standards. Half-life (t1/2) and CLint (Intrinsic clearance) were calculated using standard pharmacokinetic calculations based on the decay of drug concentration over time. […] The test compound 50b at 10 µM was incubated with liver microsomes in the presence of NADPH at […] The positive control, 7-ethoxycoumarin (7-EC) at 10 µM, was run concurrently to 147 (1 picture or pasted object on this page, not shown here)

[3] = molecular target: T1, aryl hydrocarbon receptor (AhR) (Homo sapiens, UniProt P35869); assay: AhR antagonism: CYP1A1 mRNA levels in HepG2 cells by RT-qPCR; assay type: cell-based; conditions: HepG2, 4 h incubation, 2^-ΔΔCt, normalized to DMSO control
T1 construct: Human hepatocellular carcinoma (HepG2) cell lines were acquired from Abcam; host or cells: HepG2 (human hepatocellular carcinoma)
T1 sequence (P35869 11-848): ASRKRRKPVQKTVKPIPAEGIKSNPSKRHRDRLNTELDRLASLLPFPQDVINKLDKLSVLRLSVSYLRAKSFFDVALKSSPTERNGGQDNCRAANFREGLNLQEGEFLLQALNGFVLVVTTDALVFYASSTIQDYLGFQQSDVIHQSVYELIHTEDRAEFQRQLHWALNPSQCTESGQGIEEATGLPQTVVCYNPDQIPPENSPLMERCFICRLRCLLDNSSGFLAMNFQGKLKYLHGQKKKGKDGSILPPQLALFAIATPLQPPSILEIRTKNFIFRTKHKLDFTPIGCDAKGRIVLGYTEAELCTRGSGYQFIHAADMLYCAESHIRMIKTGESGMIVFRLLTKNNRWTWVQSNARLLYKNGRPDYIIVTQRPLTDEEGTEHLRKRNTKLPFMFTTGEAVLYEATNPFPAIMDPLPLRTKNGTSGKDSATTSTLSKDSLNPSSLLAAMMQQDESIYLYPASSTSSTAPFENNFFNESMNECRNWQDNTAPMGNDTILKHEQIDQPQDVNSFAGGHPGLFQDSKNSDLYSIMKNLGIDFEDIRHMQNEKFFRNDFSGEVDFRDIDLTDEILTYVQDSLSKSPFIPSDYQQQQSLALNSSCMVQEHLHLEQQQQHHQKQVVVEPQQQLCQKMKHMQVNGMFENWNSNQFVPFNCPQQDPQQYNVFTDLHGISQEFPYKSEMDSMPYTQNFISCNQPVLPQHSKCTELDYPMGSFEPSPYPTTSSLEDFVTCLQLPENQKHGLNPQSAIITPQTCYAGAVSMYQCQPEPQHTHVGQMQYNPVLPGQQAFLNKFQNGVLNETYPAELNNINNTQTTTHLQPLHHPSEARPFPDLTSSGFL
Source text: To this aim, we decided to measure the activity of ezutromid and the analogues against ezutromid's primary target, which has recently been identified as the aryl hydrocarbon receptor (AhR)[40]. This nuclear transcription factor plays a pivotal role in the metabolism of exogenous small molecules by targeting nuclear DNA to upregulate the expression of several isoforms of CYP enzymes responsible for the phase I metabolism of drugs, such as CYP1A isoforms (Fig. 5a). Therefore, AhR inhibition can be monitored by measuring the relative expression of these genes, with lower CYP1A1 mRNA levels being proportional to AhR antagonism.  Fig. 5 AhR antagonism and biological evaluation of BCHep analogues. a, A schematic representation of how ezutromid antagonizes AhR preventing its translocation into the nuclei and its subsequent upregulation of CYP1A1 enzyme. The inhibition of AhR can therefore be evaluated as a decrease in CYP1A1 expression. b, The evaluation of 50a-c as AhR antagonists compared with ezutromid. Data have been obtained by quantitative RT-qPCR and analysed using the 2^-ΔΔCt method. Values obtained have been normalized to control (DMSO 1%) and presented as mean + s.e.m. The IC50 values were determined from biological triplicates, except for compounds 50c and ezutromid, which were measured from duplicate experimental replicates.

[4] = MetID of 50b in liver microsomes (LC-UV-MS); assay type: in vitro ADME, human
Description: Fig.S178. Evaluation of 50a-c as AhR antagonists compared to Ezutromid. Data have been obtained by RT-qPCR, and analysed using the 2-∆∆Ct method. Values obtained have been normalized to control (DMSO 1%), and presented as Mean + SEM (n=4). Statistical analysis was performed using the Ordinary One-way ANOVA followed by Dunnett’s multiple comparisons test against Vehicle Control: **: p < 0.005; ****: p < 0.0001 (grey).
Metabolic stability of compounds was assessed in Mouse Liver Microsomes (MLM) by WuxiAppTech (Shangai, China). Briefly, ACN solutions of test compounds ( 50a-c, i.a concentration 1μM) were dispensed in duplicate in a 96-well plate using an Apricot automation workstation. […] NADPH -independent metabolism was assessed for each condition by replacing NADPH solution with PBS b uffer. […]
After proper incubation time, reaction was stopped by addition of ice -cold ACN and the plates were sealed, shaken and centrifuged at 1800 x g and 4°C for 20 minutes. The supernatant was then subjected to LC/MS-MS analysis for residual drug quantitation using 250 nM tolbutamide and 250 nM labetalol as internal standards. Half-life (t1/2) and CLint (Intrinsic clearance) were calculated using standard pharmacokinetic calculations based on the decay of drug concentration over time. […]
incubation system was reliable for metabolic study. After incubation, the samples were analyzed by LC - UV-MS. […]

utrophin = system: utrophin; parameters: method as in doi:10.1080/21678707.2018.1438261; conditions: patients with DMD, cited from earlier work
[5] = with α-naphthoflavone (ANF, CYP1A inhibitor) 3 μM, with 3 μM ANF (CYP1A inhibitor)
[6] = with α-naphthoflavone (ANF, CYP1A inhibitor) 3 μM, with 3 μM ANF

SMILES | solubility kinetic at 24 h [1] | increase in metabolic half-life compared with ezutromid [2] | half-life at 1 μM ([2]; without ANF) [min] | microsomal CLint at 1 μM ([2]; without ANF) [µL/min/mg] | half-life at 1 μM [2, 5] [min] | microsomal CLint at 1 μM [2, 6] [µL/min/mg] | IC50 [3] [µM] | half-life compared with ezutromid [2] | Relative Abundance (UV Peak Area %Total) ([4]; 50b at 10 µM, human liver microsomes, NADPH, 37°C, 60 min) [%] | predominant biotransformation ([4]; metabolic profiling of 50b) | primary or secondary end points (utrophin; after 48 weeks of treatment) | levels of utrophin (utrophin; repeated dosing, 24-week data) | muscle fibre damage (utrophin; repeated dosing, 24-week data)
CCS(=O)(=O)c1ccc2oc(C34Cc5ccccc5C(C3)C4)nc2c1 [50a] | < 1.56 µM and < 0.552 µg/mL | ~ 2 fold | 94 ± 0.2 | 14.7 ± 0.1 | 108 ± 11 | 12.8 ± 1.4 | 19 ± 18 |  |  |  |  |  | 
CCS(=O)(=O)c1ccc2oc(-c3ccc4c(c3)CC3CC4C3)nc2c1 [50b] | < 1.56 µM and < 0.552 µg/mL |  | 40 ± 7 | 35.6 ± 7 | 42 ± 4 | 33.6 ± 2.7 | 2.12 ± 0.3 | slight decrease | 66.02 | mono-oxygenation of the BCHep moiety |  |  | 
CCS(=O)(=O)c1ccc2oc(-c3ccc4c(c3)C3CC(C4)C3)nc2c1 [50c] |  |  | 48 ± 8 | 29.9 ± 4.9 | 56 ± 10 | 25.7 ± 4.6 | 13.1 ± 2 |  |  |  |  |  | 
CCS(=O)(=O)c1ccc2oc(-c3ccc4ccccc4c3)nc2c1 [Ezutromid, ezutromid, reference compound] | < 1.56 µM and < 0.527 µg/mL |  | 60 ± 5 | 23.3 ± 2 | 89 ± 6 | 15.8 ± 1.1 | 0.27 |  |  |  | failed to meet | increased | statistically significant reduction
